Tests used:
[1] = species on record: Oryctolagus cuniculus; assay: In vitro smooth muscle contractility using isolated rabbit duodenum; type: functional, Muscle tissue
[2] = Compound was evaluated for the half life period after oral administration in conscious dog.; type: ADME, organism-based, Canis lupus familiaris; details: in vivo
[3] = Oral bioavailability in dog (conscious); type: ADME, organism-based, Canis lupus familiaris; details: in vivo
[4] = species on record: Canis familiaris; assay: Effective dose was evaluated for gastrointestinal motor stimulating activity in dog; type: functional; details: Canis lupus familiaris

half-life [2] [h] | bioavailability [3] [%] | Compound | pED50 [1] | ED50 [4] [mg/kg]
– | – | CC[C@H]1NC(=O)[C@H](C)[C@@H](O[C@H]2C[C@@](C)(OC)C[C@H](C)O2)[C@H](C)[C@@H](O[C@@H]2O[C@H](C)C[C@H](NC)[C@H]2O)[C@@]2(C)C[C@@H](C)[C@@H](O2)[C@H](C)[C@@H](O)[C@]1(C)O | 7.25 | –
– | – | CC[C@H]1NC(=O)[C@H](C)[C@@H](O[C@H]2C[C@@](C)(OC)C[C@H](C)O2)[C@H](C)[C@@H](O[C@@H]2O[C@H](C)C[C@H](N(C)CC(C)C)[C@H]2O)[C@@]2(C)C[C@@H](C)[C@@H](O2)[C@H](C)[C@@H](O)[C@]1(C)O | 6.88 | –
3.3 | 40 | CC[C@H]1NC(=O)[C@H](C)[C@@H](O[C@H]2C[C@@](C)(OC)C[C@H](C)O2)[C@H](C)[C@@H](O[C@@H]2O[C@H](C)C[C@H](N(C)C)[C@H]2O)[C@@]2(C)C[C@@H](C)[C@@H](O2)[C@H](C)[C@@H](O)[C@]1(C)O | 7.5 | –
– | – | CC[C@H]1NC(=O)[C@H](C)[C@@H](O[C@H]2C[C@@](C)(OC)C[C@H](C)O2)[C@H](C)[C@@H](O[C@@H]2O[C@H](C)C[C@H](N(C)CCF)[C@H]2O)[C@@]2(C)C[C@@H](C)[C@@H](O2)[C@H](C)[C@@H](O)[C@]1(C)O | 6.3 | –
3.8 | 60.5 | CC[C@H]1NC(=O)[C@H](C)[C@@H](O[C@H]2C[C@@](C)(OC)C[C@H](C)O2)[C@H](C)[C@@H](O[C@@H]2O[C@H](C)C[C@H](N(C)C(C)C)[C@H]2O)[C@@]2(C)C[C@@H](C)[C@@H](O2)[C@H](C)[C@@H](O)[C@]1(C)O | 8 | 0.036
– | – | CC[C@@H](O)[C@@](C)(O)C1OC(=O)[C@@H](C)[C@H](OC2C[C@@](C)(OC)C[C@H](C)O2)[C@H](C)[C@@H](O[C@@H]2O[C@H](C)C[C@H](N(C)C)[C@H]2O)[C@@H](C)[C@H]2O[C@H]([C@@H]2C)[C@@H]1C (some centres undefined) | 4.35 | –
– | – | CC[C@H]1NC(=O)[C@H](C)[C@@H](O[C@H]2C[C@@](C)(OC)C[C@H](C)O2)[C@H](C)[C@@H](O[C@@H]2O[C@H](C)C[C@H](N(C)CC(C)O)[C@H]2O)[C@@]2(C)C[C@@H](C)[C@@H](O2)[C@H](C)[C@@H](O)[C@]1(C)O (some centres undefined) | 6.6 | –
– | – | CC[C@H]1NC(=O)[C@H](C)[C@@H](O[C@H]2C[C@@](C)(OC)C[C@H](C)O2)[C@H](C)[C@@H](O[C@@H]2O[C@H](C)C[C@H](N(C)CCO)[C@H]2O)[C@@]2(C)C[C@@H](C)[C@@H](O2)[C@H](C)[C@@H](O)[C@]1(C)O | 6.6 | –
4 | 5 | CC[C@H]1OC(=O)[C@H](C)[C@@H](O[C@H]2C[C@@](C)(OC)C[C@H](C)O2)[C@H](C)[C@@H](O[C@@H]2O[C@H](C)C[C@H](N(C)C)[C@H]2O)[C@@]2(C)C[C@@H](C)[C@@H](O2)[C@H](C)[C@@H](O)[C@]1(C)O | 7.8 | –
– | – | CC[C@H]1NC(=O)[C@H](C)[C@@H](O[C@H]2C[C@@](C)(OC)C[C@H](C)O2)[C@H](C)[C@@H](O[C@@H]2O[C@H](C)C[C@H](N(C)CC)[C@H]2O)[C@@]2(C)C[C@@H](C)[C@@H](O2)[C@H](C)[C@@H](O)[C@]1(C)O | 7.11 | –
– | – | CC[C@H]1OC(=O)[C@H](C)[C@@H](O[C@H]2C[C@@](C)(OC)C[C@H](C)O2)[C@H](C)[C@@H](O[C@@H]2O[C@H](C)C[C@H](N(C)CC)[C@H]2O)[C@@]2(C)CC(C)=C(O2)[C@H](C)[C@@H](O)[C@H]1C [ALEMCINAL] | 7.22 | –
– | – | CC[C@H]1OC(=O)[C@H](C)[C@@H](O[C@H]2C[C@@](C)(OC)[C@@H](O)[C@H](C)O2)[C@H](C)[C@@H](O[C@@H]2O[C@H](C)C[C@H](N(C)C)[C@H]2O)[C@](C)(O)C[C@@H](C)C(=O)[C@H](C)[C@@H](O)[C@]1(C)O [ERYTHROMYCIN] | 5.85 | –

From ChEMBL document CHEMBL1131560, “Preparation of 9-deoxo-4"-deoxy-6,9-epoxyerythromycin lactams "motilactides": potent and orally active prokinetic agents” (Bioorg Med Chem Lett, 1998)
